A short description of data set [1]: Octanol-buffer partition coefficient, log D of the compound at pH 7.4 after 30 mins by shake-flask method. The class given is physicochemical.
The nature of data set [2]: Lipophilicity, log D of the compound by HPLC analysis. The class given is physicochemical.
The nature of data set [3]: Aqueous solubility of the compound in phosphate buffer at pH 7.4 after 24 hrs by LC-UV analysis. The class given is physicochemical.
Data set [4] in a line: Dissociation constant, pKa of the compound. In kind it is physicochemical.
A short description of data set [5]: Plasma concentration in mouse at 20 mg/kg, po measured at 1 hr. In kind it is ADME, organism-based. Further details: dose 20 mg/kg, route oral.
Data set [6] in a line: Intrinsic clearance in human liver microsomes. As to conditions: read-out: CLH. In kind it is ADME. In general terms: Liver microsomes are a subcellular fraction often used to study metabolism.
Data set [7] is described as follows: Drug uptake in mouse brain at 20 mg/kg, po measured at 1 hr. The class given is ADME, organism-based. Further details: dose 20 mg/kg, route oral. As to conditions: read-out: Drug uptake.

In brackets after ≈: the same amount, converted by molar mass.

A word on the logD: it is lipophilicity at a set pH, counting ionised and neutral species. Low values mean a more hydrophilic compound, high ones a more lipophilic compound. The solubility is how much of the substance goes into solution per volume. Read a low solubility as a poorly soluble substance. Turning to `Cc1ccccc1-c1nc2ccc(-c3ccc(Cl)cc3)cc2c(=O)n1C[C@H]1CCCN(C(C)C)C1`, the logD at 0.5 h in data set [1] is > 4.3. For the same molecule, in data set [2], the pH-dependent lipophilicity (logD) stood at 5. This molecule displayed a solubility at 24 h in data set [3] of 45 µM (≈ 21.9 µg/mL).

By pKa is commonly meant the pH at which an ionisable group is half protonated. Low readings indicate a group that gives up its proton readily, high ones a group that holds its proton tightly. Take `COCCN1CCC[C@@H](Cn2c(-c3ccccc3C)nc3cc(-c4ccc(Cl)cc4)sc3c2=O)C1`: the logD at 0.5 h in data set [1] is > 4.3. The molecule also displayed a log distribution coefficient (logD) in data set [2] of 5.6. Further, in data set [4], the pKa stood at 8.5.

With `COCCN1CCC[C@@H](Cn2c(-c3ccccc3C)nc3nc(-c4ccc(Cl)cc4)sc3c2=O)C1`, the logD at 0.5 h in data set [1] is 3.5. For the same molecule, in data set [2], the log distribution coefficient (logD) was found to be 5.1. Also, in data set [4], the pKa was found to be 9.2.

`COCCN1CCC[C@@H](Cn2c(-c3ccccc3C)nc3cn(-c4ccc(Cl)cc4)nc3c2=O)C1`: the logD at 0.5 h in data set [1] was determined as 3.3. Besides, in data set [2], the logD came to 3.7. In data set [4], the pKa was determined as 8.5.

As for `COc1cccc(-n2cc3nc(-c4cccnc4C)n(C[C@H]4CCCN(C(C)C)C4)c(=O)c3n2)c1`, the logD at 0.5 h in data set [1] is 1.3. Also, in data set [3], the solubility at 24 h was > 2700 µM. For the same molecule, the pKa in data set [4] was determined as 9.7.

The molecule `COCCN1CCC[C@H](Cn2c(-c3cccnc3C)nc3cn(-c4cccc(OC)c4)nc3c2=O)C1` had a logD at 0.5 h in data set [1] of 1.3. In addition, the pKa in data set [4] came to 8.4.

`COCCN1CCC[C@H](Cn2c(-c3cccnc3C)nc3cn(C4CCCCC4)nc3c2=O)C1` returned a log distribution coefficient (logD) at 0.5 h in data set [1] of 1.4.

Regarding `COc1cccc(-n2cc3nc(-c4cccnc4C)n(C[C@H]4CCCN(C[C@H]5CCCO5)C4)c(=O)c3n2)c1`, in data set [1], the logD at 0.5 h is 2. Further, the results for the concentration at 1 h in data set [5] and in data set [7] were 1200 nM and 240 nM, respectively. Also, in data set [6], the microsomal CLint stood at 17 µL/min/mg. Besides, the solubility at 24 h in data set [3] was > 1500 µM.

In data set [1], `COc1cccc(-n2cc3nc(C)n(C[C@H]4CCCN(C[C@H]5CCCO5)C4)c(=O)c3n2)c1` displayed a logD at 0.5 h of 1.9. The microsomal CLint in data set [6] is 16 µL/min/mg.

As to `COc1cccc(-n2cc3nc(CC(C)C)n(C[C@H]4CCCN(C[C@H]5CCCO5)C4)c(=O)c3n2)c1`, the log distribution coefficient (logD) at 0.5 h in data set [1] was found to be 3.1. For the same molecule, the microsomal CLint in data set [6] stood at 60 µL/min/mg.

Take `Cc1ncccc1-c1nc2cn(-c3ccccc3)nc2c(=O)n1C[C@H]1CCCN(C[C@H]2CCCO2)C1`: the pH-dependent lipophilicity (logD) at 0.5 h in data set [1] is 1.7. In addition, the microsomal CLint in data set [6] was determined as 15 µL/min/mg.

With `COc1ccc(-n2cc3nc(-c4cccnc4C)n(C[C@H]4CCCN(C[C@H]5CCCO5)C4)c(=O)c3n2)cc1`, the pH-dependent lipophilicity (logD) at 0.5 h in data set [1] is 1.9. For the same molecule, in data set [6], the microsomal CLint worked out at 21 µL/min/mg.

In data set [1], `CCOc1cccc(-n2cc3nc(-c4cccnc4C)n(C[C@H]4CCCN(C[C@H]5CCCO5)C4)c(=O)c3n2)c1` returned a log distribution coefficient (logD) at 0.5 h of 2.5. Moreover, the microsomal CLint in data set [6] was 30 µL/min/mg.

As for `CCCOc1cccc(-n2cc3nc(-c4cccnc4C)n(C[C@H]4CCCN(C[C@H]5CCCO5)C4)c(=O)c3n2)c1`, in data set [1], the pH-dependent lipophilicity (logD) at 0.5 h came to 2.9. For the same molecule, the microsomal CLint in data set [6] came out at 67 µL/min/mg.

`Cc1ncccc1-c1nc2cn(-c3cccc(OC(C)C)c3)nc2c(=O)n1C[C@H]1CCCN(C[C@H]2CCCO2)C1`: the logD at 0.5 h in data set [1] was determined as 2.7. Further, the microsomal CLint in data set [6] came out at 51 µL/min/mg.

In the case of `Cc1ncccc1-c1nc2cn(-c3cccc(OC(F)F)c3)nc2c(=O)n1C[C@H]1CCCN(C[C@H]2CCCO2)C1`, in data set [1], the logD at 0.5 h worked out at 2.2. Further, the microsomal CLint in data set [6] is 33 µL/min/mg.

`Cc1ccccc1-c1nc2cc(-c3ccc(Cl)cc3)sc2c(=O)n1CC1CCCN(C(C)C)C1` (racemic) yielded a pH-dependent lipophilicity (logD) in data set [2] of 4.8.

In data set [2], `Cc1ccccc1-c1nc2cn(-c3ccc(Cl)cc3)nc2c(=O)n1CC1CCCN(C(C)C)C1` (racemic) displayed a logD of 3.2. This molecule also gave a pKa in data set [4] of 10.

Consider `Cc1ccccc1-c1nc2cn(-c3ccc(F)cc3)nc2c(=O)n1CC1CCCN(C(C)C)C1` (racemic), for which, in data set [1], the logD at 0.5 h worked out at 2.3. The same molecule came in with a pKa in data set [4] of 10.

Regarding `Cc1ccccc1-c1nc2cn(-c3ccc(C#N)cc3)nc2c(=O)n1CC1CCCN(C(C)C)C1` (racemic), in data set [4], the pKa turned out to be 10.

Molecule `COc1ccc(-n2cc3nc(-c4ccccc4C)n(CC4CCCN(C(C)C)C4)c(=O)c3n2)cc1` (racemic) showed a logD at 0.5 h in data set [1] of 2.4. Besides, the pKa in data set [4] worked out at 10.

As to `Cc1ccccc1-c1nc2cn(-c3cccc(Cl)c3)nc2c(=O)n1CC1CCCN(C(C)C)C1` (racemic), the log distribution coefficient (logD) at 0.5 h in data set [1] was determined as 3. Besides, the pKa in data set [4] amounted to 9.8.

Regarding `COc1cccc(-n2cc3nc(-c4ccccc4C)n(CC4CCCN(C(C)C)C4)c(=O)c3n2)c1` (racemic), the pH-dependent lipophilicity (logD) at 0.5 h in data set [1] is 2.5. In data set [4], the pKa came to 10.

Consider `Cc1ccccc1-c1nc2cn(-c3cccc(C#N)c3)nc2c(=O)n1CC1CCCN(C(C)C)C1` (racemic), for which the logD at 0.5 h in data set [1] was 1.8. The same molecule displayed a pKa in data set [4] of 9.9.

For the molecule `COCCN1CCCC(Cn2c(-c3cccnc3C)nc3cn(-c4ccc(C#N)cc4)nc3c2=O)C1` (racemic), the logD at 0.5 h in data set [1] worked out at 1.1. Further, the pKa in data set [4] came to 8.5.

In data set [1], `Cc1ncccc1-c1nc2cn(-c3ccc(C#N)cc3)nc2c(=O)n1CC1CCCN(C2COC2)C1` (racemic) showed a log distribution coefficient (logD) at 0.5 h of 1.2. The pKa in data set [4] was determined as 6.4.

Source of the values: ChEMBL document CHEMBL3217433, “Identification of pyrazolo-pyrimidinones as GHS-R1a antagonists and inverse agonists for the treatment of obesity” (Medchemcomm, 2013).
